Data: ChEMBL document CHEMBL2440104, “Synthesis and Biological Evaluation of the First Example of NO-Donor Histone Deacetylase Inhibitor” (ACS Med Chem Lett, 2013)
Each block holds one compound with its values, some of them ahead of it. Active and inactive are the calls of the source. No cut-off for these calls is given here.

Experiments:
[1] = biological target: T1, Histone deacetylase (Homo sapiens) (UniProt Q13547+O15379+Q9UBN7+Q92769+Q9UQL6+Q8WUI4+Q9BY41+Q96DB2+P56524+Q9UKV0+Q969S8); assay: Effect on HDAC in human HaCaT cells assessed as downregulation of miR-505# at 10 uM after 1 hr by RT-PCR analysis; format: cell-based
[2] = biological target: T1, Histone deacetylase (Homo sapiens); assay: Inhibition of HDAC activity in human HaCaT cell lysate at 50 uM after 1 hr by colorimetry; format: cell-free
C2C12 [3] = assay: Increase in mouse C2C12 cell proliferation at 0.1 uM after 72 hrs; format: functional, cell-based
[4] = biological target: Histone deacetylase 4 (Homo sapiens) (UniProt P56524); assay: Induction of HDAC4 nuclear shuttling in human HaCaT cells at 10 uM after 1 hr by immunofluorescence method relative to DMSO-treated control; format: cell-based
Chain of Histone deacetylase 4 (Homo sapiens) (P56524 whole entry): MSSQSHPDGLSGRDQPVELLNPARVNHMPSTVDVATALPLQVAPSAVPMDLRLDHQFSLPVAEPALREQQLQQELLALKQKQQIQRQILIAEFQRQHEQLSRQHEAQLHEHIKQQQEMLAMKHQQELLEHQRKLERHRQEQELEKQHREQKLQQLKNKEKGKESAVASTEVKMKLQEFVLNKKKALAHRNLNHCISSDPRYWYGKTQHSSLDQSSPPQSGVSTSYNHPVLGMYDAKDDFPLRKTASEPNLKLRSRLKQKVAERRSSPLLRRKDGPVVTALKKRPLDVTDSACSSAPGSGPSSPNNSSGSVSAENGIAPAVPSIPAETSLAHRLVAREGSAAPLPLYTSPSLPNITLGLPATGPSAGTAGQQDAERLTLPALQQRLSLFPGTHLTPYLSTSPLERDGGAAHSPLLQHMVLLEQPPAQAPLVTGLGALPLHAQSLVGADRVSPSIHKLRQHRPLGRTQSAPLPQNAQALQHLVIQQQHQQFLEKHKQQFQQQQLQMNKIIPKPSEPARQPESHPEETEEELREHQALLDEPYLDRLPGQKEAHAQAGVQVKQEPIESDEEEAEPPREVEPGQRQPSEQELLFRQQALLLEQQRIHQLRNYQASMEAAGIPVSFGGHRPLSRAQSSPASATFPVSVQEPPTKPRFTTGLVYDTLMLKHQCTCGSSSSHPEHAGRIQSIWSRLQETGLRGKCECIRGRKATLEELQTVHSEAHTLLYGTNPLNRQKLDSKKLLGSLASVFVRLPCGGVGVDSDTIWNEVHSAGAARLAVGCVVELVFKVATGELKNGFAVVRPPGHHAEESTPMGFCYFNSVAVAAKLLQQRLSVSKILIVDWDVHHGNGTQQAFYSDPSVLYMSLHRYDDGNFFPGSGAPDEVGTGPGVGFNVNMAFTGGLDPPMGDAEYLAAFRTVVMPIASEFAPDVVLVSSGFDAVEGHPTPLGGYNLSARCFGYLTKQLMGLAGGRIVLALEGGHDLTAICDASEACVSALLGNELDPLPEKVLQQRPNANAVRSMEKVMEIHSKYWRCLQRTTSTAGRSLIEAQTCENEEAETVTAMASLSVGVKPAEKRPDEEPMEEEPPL

[5] = biological target: T1, Histone deacetylase (Homo sapiens); assay: Effect on HDAC in human HaCaT cells assessed as upregulation of miR-30d# at 10 uM after 1 hr by RT-PCR analysis; format: cell-based
[6] = biological target: T1, Histone deacetylase (Homo sapiens); assay: Effect on HDAC in human HaCaT cells assessed as downregulation of miR-378 at 10 uM after 1 hr by RT-PCR analysis; format: cell-based
[7] = biological target: T1, Histone deacetylase (Homo sapiens); assay: Effect on HDAC in human HaCaT cells assessed as upregulation of miR-1296 at 10 uM after 1 hr by RT-PCR analysis; format: cell-based
HaCaT [8] = assay: Induction of NO release in human HaCaT cells at 10 uM after 1 to 5 hrs by DAF-2D-based FACS analysis relative to DMSO-treated control; format: functional, cell-based
[9] = biological target: T1, Histone deacetylase (Homo sapiens); assay: Effect on HDAC in human HaCaT cells assessed as downregulation of miR-106b# at 10 uM after 1 hr by RT-PCR analysis; format: cell-based
[10] = biological target: T1, Histone deacetylase (Homo sapiens); assay: Effect on HDAC in human HaCaT cells assessed as downregulation of miR-27a# at 10 uM after 1 hr by RT-PCR analysis; format: cell-based
C2C12 [11] = assay: Induction of myogenic differentiation in mouse C2C12 cells assessed as MHC-positive fibers at 0.1 uM after 7 days by immunofluorescence microscopy; format: functional, cell-based
[12] = biological target: T1, Histone deacetylase (Homo sapiens); assay: Effect on HDAC in human HaCaT cells assessed as downregulation of miR-99b# at 10 uM after 1 hr by RT-PCR analysis; format: cell-based
[13] = biological target: T1, Histone deacetylase (Homo sapiens); assay: Effect on HDAC in human HaCaT cells assessed as downregulation of miR-200a# at 10 uM after 1 hr by RT-PCR analysis; format: cell-based
[14] = biological target: T1, Histone deacetylase (Homo sapiens); details: HaCaT, at 1 to 50 µM
Description: Inhibition of HDAC activity in human HaCaT cell lysate at 1 to 50 uM after 1 hr by colorimetry

[15] = biological target: T1, Histone deacetylase (Homo sapiens); assay: Effect on HDAC in human HaCaT cells assessed as downregulation of miR-33a# at 10 uM after 1 hr by RT-PCR analysis; format: cell-based
[16] = biological target: T1, Histone deacetylase (Homo sapiens); assay: Effect on HDAC in human HaCaT cells assessed as upregulation of miR-18a# at 10 uM after 1 hr by RT-PCR analysis; format: cell-based
[17] = biological target: T1, Histone deacetylase (Homo sapiens); assay: Effect on HDAC in human HaCaT cells assessed as upregulation of miR-1305 at 10 uM after 1 hr by RT-PCR analysis; format: cell-based
[18] = biological target: Histone deacetylase 2 (Homo sapiens) (UniProt Q92769); assay: Induction of HDAC2 cysteine S-nitrosylation in human HaCaT cells at 10 uM after 1 hr by immunoprecipitation method; format: cell-based
Chain of Histone deacetylase 2 (Homo sapiens) (Q92769 whole entry): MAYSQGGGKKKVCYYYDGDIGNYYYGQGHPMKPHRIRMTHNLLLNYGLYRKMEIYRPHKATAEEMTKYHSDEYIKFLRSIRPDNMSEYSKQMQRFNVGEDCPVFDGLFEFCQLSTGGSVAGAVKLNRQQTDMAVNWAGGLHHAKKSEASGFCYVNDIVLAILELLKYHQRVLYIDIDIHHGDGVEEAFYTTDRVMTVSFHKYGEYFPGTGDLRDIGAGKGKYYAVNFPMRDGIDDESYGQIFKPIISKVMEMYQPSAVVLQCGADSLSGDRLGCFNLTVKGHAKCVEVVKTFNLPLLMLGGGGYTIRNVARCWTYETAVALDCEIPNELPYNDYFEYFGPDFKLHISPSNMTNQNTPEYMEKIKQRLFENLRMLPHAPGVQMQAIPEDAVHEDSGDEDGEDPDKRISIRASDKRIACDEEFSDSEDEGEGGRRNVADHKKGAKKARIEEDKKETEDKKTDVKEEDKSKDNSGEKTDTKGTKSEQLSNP

[19] = biological target: T1, Histone deacetylase (Homo sapiens); assay: Effect on HDAC in human HaCaT cells assessed as downregulation of miR-19b-1 at 10 uM after 1 hr by RT-PCR analysis; format: cell-based
[20] = biological target: T1, Histone deacetylase (Homo sapiens); assay: Effect on HDAC in human HaCaT cells assessed as upregulation of miR-192# at 10 uM after 1 hr by RT-PCR analysis; format: cell-based
[21] = biological target: Histone deacetylase 2 (Homo sapiens) (UniProt Q92769); assay: Induction of HDAC2 cysteine S-nitrosylation in human HaCaT cells at 10 uM after 1 hr by immunoprecipitation method in prsence of NO scavenger PTIO; format: cell-based
[22] = biological target: T1, Histone deacetylase (Homo sapiens); assay: Effect on HDAC in human HaCaT cells assessed as upregulation of miR-409-3p at 10 uM after 1 hr by RT-PCR analysis; format: cell-based
C2C12 [23] = assay: Modulation of mouse C2C12 cell proliferation at 0.1 uM after 72 hrs; format: functional, cell-based
C2C12 [24] = assay: Induction of myogenic differentiation in mouse C2C12 cells assessed as increase in number of nuclei per fiber at 0.1 uM after 7 days by immunofluorescence microscopy; format: functional, cell-based
[25] = biological target: T1, Histone deacetylase (Homo sapiens); assay: Effect on HDAC in human HaCaT cells assessed as downregulation of miR-1254 at 10 uM after 1 hr by RT-PCR analysis; format: cell-based
HaCaT [26] = assay: Induction of NO release in human HaCaT cells assessed as Production of [3H]cGMP after 1 hr by liquid scintillation counting; format: functional, cell-based

Activity [1]: Active
inhibition [2]: Active
Activity [4]: Active
Activity [5]: Active
Activity [6]: Active
Activity [7]: Active
Activity [9]: Active
Structure (SMILES): CN(C)Cc1no[n+]([O-])c1C#N
Activity (C2C12 [3]): Active
Activity (HaCaT [8]): Active

Activity [10]: Active
Activity [4]: Active
Activity [12]: Active
Activity [13]: Active
inhibition [14]: Active
Activity [15]: Active
Activity [16]: Active
Activity [17]: Active
Activity [18]: Active
Activity [6]: Active
Activity [19]: Active
Activity [20]: Active
Activity [21]: inactive
Activity [22]: Active
Activity [25]: Active
Activity [9]: Active
Structure (SMILES): CN(Cc1ccc(COC(=O)NCc2ccc(C(=O)Nc3ccccc3N)cc2)cn1)Cc1no[n+]([O-])c1C#N
Activity (C2C12 [11]): Active
Activity (C2C12 [23]): Active
Activity (C2C12 [24]): Active
Activity (HaCaT [8]): Active
Activity (HaCaT [26]): Dose-dependent effect

Activity [4]: inactive
Structure (SMILES): Nc1ccccc1NC(=O)c1ccc(CNC(=O)OCc2cccnc2)cc1
Activity (C2C12 [23]): Active
Activity (HaCaT [8]): inactive
